Source: PubChem BioAssay (NCI)
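Test compounds were applied to cells in 96-well plates for 48 hours at 5 doses. TGI: total growth inhibition.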

tested on: UO-31 renal; test: NCI tumour cell line growth inhibition, 48 h

Point of comparison: `O=C(N/N=C/c1cccc(O)c1O)N/N=C/c1cccc(O)c1O`, TGI 36.8 µM. Against it:
- CC(=O)OCCc1cccnc1/C=N/O — higher, > 100 µM
- COc1ccc(/C=C(/C(=O)O)c2cc(OC)c(OC)c(OC)c2)cc1 — higher, > 100 µM
- O=C1Oc2cc3c(c4cccc1c24)OCN(c1ccc(Cl)cc1)C3 — within 1.5-fold, 32.2 µM
- CCOC(=O)CCCO — higher, > 100 µM

tested on: HOP-62 NSCLC; test: NCI tumour cell line growth inhibition, 48 h

Point of comparison: `Cc1cc(C)nc(NS(=O)(=O)c2ccc(NC(=O)c3cccc4c(=O)c5ccccc5[nH]c34)cc2)n1`, TGI 56.7 µM. Against it:
- c1ccc(-c2nnc(-c3nn(-c4ccccc4)c4nc5ccccc5nc34)o2)cc1 — higher, > 100 µM
- COc1cc2c(cc1OC)C1C=NC(C(=O)O)(C2)c2ccccc21 (stereo unspecified) — higher, > 100 µM
- CC(=O)OCCc1cccnc1/C=N/O — higher, > 100 µM
- COc1ccc(/C=C(/C(=O)O)c2cc(OC)c(OC)c(OC)c2)cc1 — higher, > 100 µM
- O=C1Oc2cc3c(c4cccc1c24)OCN(c1ccc(Cl)cc1)C3 — higher, > 100 µM

tested on: HCT-116 colon; test: NCI tumour cell line growth inhibition, 48 h

Point of comparison: `O=C1Oc2cc3c(c4cccc1c24)OCN(c1ccc(Cl)cc1)C3`, TGI 29.3 µM. Against it:
- c1ccc(-c2nnc(-c3nn(-c4ccccc4)c4nc5ccccc5nc34)o2)cc1 — higher, > 100 µM
- COc1cc2c(cc1OC)C1C=NC(C(=O)O)(C2)c2ccccc21 (stereo unspecified) — higher, > 100 µM
- Cc1cc(C)nc(NS(=O)(=O)c2ccc(NC(=O)c3cccc4c(=O)c5ccccc5[nH]c34)cc2)n1 — within 1.5-fold, 30.7 µM
- O=C(N/N=C/c1cccc(O)c1O)N/N=C/c1cccc(O)c1O — within 1.5-fold, 39.8 µM
- CC(=O)OCCc1cccnc1/C=N/O — higher, > 100 µM
- COc1ccc(/C=C(/C(=O)O)c2cc(OC)c(OC)c(OC)c2)cc1 — higher, > 100 µM

tested on: SW-620 colon; test: NCI tumour cell line growth inhibition, 48 h

Point of comparison: `Cc1cc(C)nc(NS(=O)(=O)c2ccc(NC(=O)c3cccc4c(=O)c5ccccc5[nH]c34)cc2)n1`, TGI 55.5 µM. Against it:
- c1ccc(-c2nnc(-c3nn(-c4ccccc4)c4nc5ccccc5nc34)o2)cc1 — higher, > 100 µM
- COc1cc2c(cc1OC)C1C=NC(C(=O)O)(C2)c2ccccc21 (stereo unspecified) — higher, > 100 µM
- O=C(N/N=C/c1cccc(O)c1O)N/N=C/c1cccc(O)c1O — higher, > 100 µM
- CC(=O)OCCc1cccnc1/C=N/O — higher, > 100 µM
- COc1ccc(/C=C(/C(=O)O)c2cc(OC)c(OC)c(OC)c2)cc1 — higher, > 100 µM
- O=C1Oc2cc3c(c4cccc1c24)OCN(c1ccc(Cl)cc1)C3 — not separable, > 55.3 µM
- CCOC(=O)CCCO — higher, > 100 µM

tested on: SF-268 CNS; test: NCI tumour cell line growth inhibition, 48 h

Point of comparison: `Cc1cc(C)nc(NS(=O)(=O)c2ccc(NC(=O)c3cccc4c(=O)c5ccccc5[nH]c34)cc2)n1`, TGI 48.2 µM. Against it:
- c1ccc(-c2nnc(-c3nn(-c4ccccc4)c4nc5ccccc5nc34)o2)cc1 — higher, > 100 µM
- COc1cc2c(cc1OC)C1C=NC(C(=O)O)(C2)c2ccccc21 (stereo unspecified) — higher, > 100 µM
- O=C(N/N=C/c1cccc(O)c1O)N/N=C/c1cccc(O)c1O — higher, > 100 µM
- CC(=O)OCCc1cccnc1/C=N/O — higher, > 100 µM
- COc1ccc(/C=C(/C(=O)O)c2cc(OC)c(OC)c(OC)c2)cc1 — higher, > 100 µM
- O=C1Oc2cc3c(c4cccc1c24)OCN(c1ccc(Cl)cc1)C3 — higher, > 100 µM
- CCOC(=O)CCCO — higher, > 100 µM

tested on: A549 NSCLC; test: NCI tumour cell line growth inhibition, 48 h

Point of comparison: `Cc1cc(C)nc(NS(=O)(=O)c2ccc(NC(=O)c3cccc4c(=O)c5ccccc5[nH]c34)cc2)n1`, TGI 51.2 µM. Against it:
- c1ccc(-c2nnc(-c3nn(-c4ccccc4)c4nc5ccccc5nc34)o2)cc1 — higher, > 100 µM
- COc1cc2c(cc1OC)C1C=NC(C(=O)O)(C2)c2ccccc21 (stereo unspecified) — higher, > 100 µM
- O=C(N/N=C/c1cccc(O)c1O)N/N=C/c1cccc(O)c1O — higher, > 100 µM
- CC(=O)OCCc1cccnc1/C=N/O — higher, > 100 µM
- COc1ccc(/C=C(/C(=O)O)c2cc(OC)c(OC)c(OC)c2)cc1 — higher, > 100 µM
- O=C1Oc2cc3c(c4cccc1c24)OCN(c1ccc(Cl)cc1)C3 — higher, > 100 µM
- CCOC(=O)CCCO — higher, > 100 µM

tested on: OVCAR-4 ovarian; test: NCI tumour cell line growth inhibition, 48 h

Point of comparison: `O=C1Oc2cc3c(c4cccc1c24)OCN(c1ccc(Cl)cc1)C3`, TGI 96.6 µM. Against it:
- c1ccc(-c2nnc(-c3nn(-c4ccccc4)c4nc5ccccc5nc34)o2)cc1 — higher, > 100 µM
- COc1cc2c(cc1OC)C1C=NC(C(=O)O)(C2)c2ccccc21 (stereo unspecified) — higher, > 100 µM
- Cc1cc(C)nc(NS(=O)(=O)c2ccc(NC(=O)c3cccc4c(=O)c5ccccc5[nH]c34)cc2)n1 — 2.2-fold lower, 43.3 µM
- O=C(N/N=C/c1cccc(O)c1O)N/N=C/c1cccc(O)c1O — higher, > 100 µM
- CC(=O)OCCc1cccnc1/C=N/O — higher, > 100 µM
- COc1ccc(/C=C(/C(=O)O)c2cc(OC)c(OC)c(OC)c2)cc1 — higher, > 100 µM

tested on: SN12C renal; test: NCI tumour cell line growth inhibition, 48 h

Point of comparison: `O=C1Oc2cc3c(c4cccc1c24)OCN(c1ccc(Cl)cc1)C3`, TGI 29.1 µM. Against it:
- c1ccc(-c2nnc(-c3nn(-c4ccccc4)c4nc5ccccc5nc34)o2)cc1 — higher, > 100 µM
- COc1cc2c(cc1OC)C1C=NC(C(=O)O)(C2)c2ccccc21 (stereo unspecified) — higher, > 100 µM
- Cc1cc(C)nc(NS(=O)(=O)c2ccc(NC(=O)c3cccc4c(=O)c5ccccc5[nH]c34)cc2)n1 — within 1.5-fold, 32.8 µM
- O=C(N/N=C/c1cccc(O)c1O)N/N=C/c1cccc(O)c1O — higher, > 100 µM
- CC(=O)OCCc1cccnc1/C=N/O — higher, > 100 µM
- COc1ccc(/C=C(/C(=O)O)c2cc(OC)c(OC)c(OC)c2)cc1 — higher, > 100 µM
- CCOC(=O)CCCO — higher, > 100 µM

tested on: UACC-62 melanoma; test: NCI tumour cell line growth inhibition, 48 h

Point of comparison: `Cc1cc(C)nc(NS(=O)(=O)c2ccc(NC(=O)c3cccc4c(=O)c5ccccc5[nH]c34)cc2)n1`, TGI 44.5 µM. Against it:
- c1ccc(-c2nnc(-c3nn(-c4ccccc4)c4nc5ccccc5nc34)o2)cc1 — higher, > 100 µM
- COc1cc2c(cc1OC)C1C=NC(C(=O)O)(C2)c2ccccc21 (stereo unspecified) — higher, > 100 µM
- O=C(N/N=C/c1cccc(O)c1O)N/N=C/c1cccc(O)c1O — higher, > 100 µM
- CC(=O)OCCc1cccnc1/C=N/O — higher, > 100 µM
- COc1ccc(/C=C(/C(=O)O)c2cc(OC)c(OC)c(OC)c2)cc1 — higher, > 100 µM
- O=C1Oc2cc3c(c4cccc1c24)OCN(c1ccc(Cl)cc1)C3 — higher, > 75 µM
- CCOC(=O)CCCO — higher, > 100 µM

tested on: SR leukemia; test: NCI tumour cell line growth inhibition, 48 h

Point of comparison: `O=C1Oc2cc3c(c4cccc1c24)OCN(c1ccc(Cl)cc1)C3`, TGI 49 µM. Against it:
- COc1cc2c(cc1OC)C1C=NC(C(=O)O)(C2)c2ccccc21 (stereo unspecified) — higher, > 100 µM
- Cc1cc(C)nc(NS(=O)(=O)c2ccc(NC(=O)c3cccc4c(=O)c5ccccc5[nH]c34)cc2)n1 — higher, > 100 µM
- CC(=O)OCCc1cccnc1/C=N/O — higher, > 100 µM
- COc1ccc(/C=C(/C(=O)O)c2cc(OC)c(OC)c(OC)c2)cc1 — higher, > 100 µM
- CCOC(=O)CCCO — higher, > 100 µM

tested on: RPMI-8226 leukemia; test: NCI tumour cell line growth inhibition, 48 h

Point of comparison: `Cc1cc(C)nc(NS(=O)(=O)c2ccc(NC(=O)c3cccc4c(=O)c5ccccc5[nH]c34)cc2)n1`, TGI 83 µM. Against it:
- c1ccc(-c2nnc(-c3nn(-c4ccccc4)c4nc5ccccc5nc34)o2)cc1 — higher, > 100 µM
- COc1cc2c(cc1OC)C1C=NC(C(=O)O)(C2)c2ccccc21 (stereo unspecified) — higher, > 100 µM
- O=C(N/N=C/c1cccc(O)c1O)N/N=C/c1cccc(O)c1O — within 1.5-fold, 76.8 µM
- COc1ccc(/C=C(/C(=O)O)c2cc(OC)c(OC)c(OC)c2)cc1 — higher, > 100 µM
- O=C1Oc2cc3c(c4cccc1c24)OCN(c1ccc(Cl)cc1)C3 — 2-fold lower, 42.1 µM
- CCOC(=O)CCCO — higher, > 100 µM

tested on: SK-MEL-28 melanoma; test: NCI tumour cell line growth inhibition, 48 h

Point of comparison: `Cc1cc(C)nc(NS(=O)(=O)c2ccc(NC(=O)c3cccc4c(=O)c5ccccc5[nH]c34)cc2)n1`, TGI 36 µM. Against it:
- c1ccc(-c2nnc(-c3nn(-c4ccccc4)c4nc5ccccc5nc34)o2)cc1 — higher, > 100 µM
- O=C(N/N=C/c1cccc(O)c1O)N/N=C/c1cccc(O)c1O — higher, > 100 µM
- CC(=O)OCCc1cccnc1/C=N/O — higher, > 100 µM
- COc1ccc(/C=C(/C(=O)O)c2cc(OC)c(OC)c(OC)c2)cc1 — higher, > 100 µM
- O=C1Oc2cc3c(c4cccc1c24)OCN(c1ccc(Cl)cc1)C3 — higher, > 93.6 µM
- CCOC(=O)CCCO — higher, > 100 µM

tested on: EKVX NSCLC; test: NCI tumour cell line growth inhibition, 48 h

Point of comparison: `Cc1cc(C)nc(NS(=O)(=O)c2ccc(NC(=O)c3cccc4c(=O)c5ccccc5[nH]c34)cc2)n1`, TGI 86.3 µM. Against it:
- c1ccc(-c2nnc(-c3nn(-c4ccccc4)c4nc5ccccc5nc34)o2)cc1 — higher, > 100 µM
- COc1cc2c(cc1OC)C1C=NC(C(=O)O)(C2)c2ccccc21 (stereo unspecified) — higher, > 100 µM
- O=C(N/N=C/c1cccc(O)c1O)N/N=C/c1cccc(O)c1O — higher, > 100 µM
- CC(=O)OCCc1cccnc1/C=N/O — higher, > 100 µM
- COc1ccc(/C=C(/C(=O)O)c2cc(OC)c(OC)c(OC)c2)cc1 — higher, > 100 µM
- O=C1Oc2cc3c(c4cccc1c24)OCN(c1ccc(Cl)cc1)C3 — higher, > 100 µM
- CCOC(=O)CCCO — higher, > 100 µM

tested on: MOLT-4 leukemia; test: NCI tumour cell line growth inhibition, 48 h

Point of comparison: `c1ccc(-c2nnc(-c3nn(-c4ccccc4)c4nc5ccccc5nc34)o2)cc1`, TGI 71.6 µM. Against it:
- COc1cc2c(cc1OC)C1C=NC(C(=O)O)(C2)c2ccccc21 (stereo unspecified) — higher, > 100 µM
- Cc1cc(C)nc(NS(=O)(=O)c2ccc(NC(=O)c3cccc4c(=O)c5ccccc5[nH]c34)cc2)n1 — higher, > 100 µM
- O=C(N/N=C/c1cccc(O)c1O)N/N=C/c1cccc(O)c1O — 1.5-fold lower, 46.8 µM
- CC(=O)OCCc1cccnc1/C=N/O — higher, > 100 µM
- COc1ccc(/C=C(/C(=O)O)c2cc(OC)c(OC)c(OC)c2)cc1 — higher, > 100 µM
- O=C1Oc2cc3c(c4cccc1c24)OCN(c1ccc(Cl)cc1)C3 — within 1.5-fold, 51.4 µM
- CCOC(=O)CCCO — higher, > 100 µM

tested on: KM20L2 colon; test: NCI tumour cell line growth inhibition, 48 h

Point of comparison: `O=C(N/N=C/c1cccc(O)c1O)N/N=C/c1cccc(O)c1O`, TGI 95.2 µM. Against it:
- c1ccc(-c2nnc(-c3nn(-c4ccccc4)c4nc5ccccc5nc34)o2)cc1 — higher, > 100 µM
- COc1cc2c(cc1OC)C1C=NC(C(=O)O)(C2)c2ccccc21 (stereo unspecified) — higher, > 100 µM
- Cc1cc(C)nc(NS(=O)(=O)c2ccc(NC(=O)c3cccc4c(=O)c5ccccc5[nH]c34)cc2)n1 — 2.4-fold lower, 40.5 µM
- CC(=O)OCCc1cccnc1/C=N/O — higher, > 100 µM
